{
  "source": "patent US20150174247A1",
  "about": "“ORAL PHARMACEUTICAL PREPARATION OF ARIPIPRAZOLE” (MARUISHI PHARMACEUTICAL CO., LTD., priority 2012, published 2015)",
  "origin": "cited, not measured here",
  "data": [
    {"molecule": "O=C1CCc2ccc(OCCCCN3CCN(c4cccc(Cl)c4Cl)CC3)cc2N1", "note": "[aripiprazole, 7-{4-[4-(2,3-dichlorophenyl)-1-piperazinyl]-butoxy}-3,4-dihydro-2(1H)-quinolinone]", "values": [
      {"measurement": "solubility in acidic range", "setting": "acidic range (pH 4.5 or less)", "value": "highly soluble"},
      {"measurement": "solubility in neutral or higher pH range", "setting": "neutral (pH 5) or higher pH range", "value": "less soluble"}
    ]}
  ]
}
